The source of these data is patent US20230192650A1, “NOVEL ACID SECRETION INHIBITOR AND USE THEREOF” (Ildong Pharmaceutical Co., Ltd., priority 2020, published 2023).

In experiment [1] the target is T1, proton pump (H+/K+-ATPase) (Sus scrofa, UniProt P19156).
T1 construct: Gastric vesicles isolated from pig stomach were prepared according to the document; from tissue; host or cells: pig stomach (gastric vesicles)
The experiment is described as follows: Inhibitory activity on proton pump (H+/K+-ATPase), malachite green assay. The note with it: pig gastric vesicles, pH 6.5. Format: biochemical. The procedure:
The proton pump (H+/K+-ATPase) inhibitory activity of the prepared compound was measured as follows. Gastric vesicles isolated from pig stomach were prepared according to the document (see Methods Mol Biol. 2016; 1377:19-27). The protein contents of the gastric vesicles were quantified with a Bicinchoninic Acid (BCA) kit (Sigma Aldrich, BCA1). To each well of a 96-well plate, 70 μl of 50 mM Tris-HEPES buffer (pH 6.5) containing 125 ng of vesicles, DMSO or a substance for each concentration (final DMSO concentration of 1%), 5 mM MgCl2, and 10 mM KCl was added and pre-incubated at 37° C. for 30 minutes. Then, 10 μl of 2 mM ATP was added to each well, followed by enzymatic reaction at 37° C. for 40 minutes. The reaction was stopped by adding 20 μl of malachite green reagent (Sigma Aldrich, MAK307) and the resulting mixture was allowed to stand at room temperature for 30 minutes. By measuring the absorbance at 620 nm using a Microplate Reader (Biotek, Synergy H4), an amount of inorganic phosphorus released from ATP degradation was measured and the enzyme activity was measured. The absorbance of the enzyme-reacted sample without adding KCl was measured, and the measurement value was subtracted from all the above measurements. Assuming that the group treated with 1% DMSO (DMSO control group) was 100% H^+/K^+-ATPase enzyme activity, and that the group without KCl (KCl control group) was 0% H^+/K^+-ATPase enzyme activity, % inhibition was calculated as in the following Equation 1:
% inhibition=[1−(ODtreatment group−ODKCl control group)/(ODDMSO control group−ODKCl control group))]*100. [Equation 1]
IC50 was obtained by nonlinear regression analysis of GraphPad Prism7 program using % inhibition values for each concentration, and results thereof are shown in Table 2 below.

Experiment [2] relates to basal gastric acid secretion. The experiment is described as follows: Inhibition of basal gastric acid secretion in pylorus-ligated rat (Shay's rat model). The note with it: SD rats, 10 mg/kg oral 1 h before pylorus ligation, 5 hours after ligation. In kind it is in vivo. The procedure: The inhibitory efficacy of the prepared compound on basal gastric acid secretion was measured by employing the Shay's rat model [Shay H, et al., Gastroenterology, 1945, 5, 43˜61].
Male Sprague Dawley (SD) rats were divided into 8 rats per group, and fasted with only water supply for 24 hours. Then, one hour before pylorus ligation, the control group was orally administered with 0.5% methylcellulose solution, and the other groups were orally administered with the Example compound at a dose of 10 mg/10 mL/kg suspended in 0.5% methylcellulose solution.
After 5 hours of ligation, the rats were sacrificed under Zoletil and Xylazine anesthesia, and the gastric contents were enucleated by incision of the abdominal cavity. The obtained contents were centrifuged at 3,000 rpm for 10 minutes to separate only the supernatant, and gastric juice was collected. 1 mL of the collected gastric juice was taken into a beaker and the pH was measured using an electrode pH meter. To 1 mL of gastric juice, 0.03 mL each of 0.5% dimethylaminoazobenzene alcohol solution and 1% phenolphthalein alcohol solution was added to make red color, and then 0.1N NaOH solution was added, wherein the volume until the rose tint appeared was determined as the total acidity, and the total acid output was obtained by multiplying the acidity of gastric juice by the amount of gastric juice. The % inhibitory activity of the Example compound was calculated according to the following Equation 2, and results thereof are shown in Table 6 below.
% inhibitory activity of Example compound=[(total gastric acid secretion in Control group−total gastric acid secretion in group treated with Example compound)/total gastric acid secretion in Control group]×100 [Equation 2]

T1 sequence (P19156 2-1034 limits assumed): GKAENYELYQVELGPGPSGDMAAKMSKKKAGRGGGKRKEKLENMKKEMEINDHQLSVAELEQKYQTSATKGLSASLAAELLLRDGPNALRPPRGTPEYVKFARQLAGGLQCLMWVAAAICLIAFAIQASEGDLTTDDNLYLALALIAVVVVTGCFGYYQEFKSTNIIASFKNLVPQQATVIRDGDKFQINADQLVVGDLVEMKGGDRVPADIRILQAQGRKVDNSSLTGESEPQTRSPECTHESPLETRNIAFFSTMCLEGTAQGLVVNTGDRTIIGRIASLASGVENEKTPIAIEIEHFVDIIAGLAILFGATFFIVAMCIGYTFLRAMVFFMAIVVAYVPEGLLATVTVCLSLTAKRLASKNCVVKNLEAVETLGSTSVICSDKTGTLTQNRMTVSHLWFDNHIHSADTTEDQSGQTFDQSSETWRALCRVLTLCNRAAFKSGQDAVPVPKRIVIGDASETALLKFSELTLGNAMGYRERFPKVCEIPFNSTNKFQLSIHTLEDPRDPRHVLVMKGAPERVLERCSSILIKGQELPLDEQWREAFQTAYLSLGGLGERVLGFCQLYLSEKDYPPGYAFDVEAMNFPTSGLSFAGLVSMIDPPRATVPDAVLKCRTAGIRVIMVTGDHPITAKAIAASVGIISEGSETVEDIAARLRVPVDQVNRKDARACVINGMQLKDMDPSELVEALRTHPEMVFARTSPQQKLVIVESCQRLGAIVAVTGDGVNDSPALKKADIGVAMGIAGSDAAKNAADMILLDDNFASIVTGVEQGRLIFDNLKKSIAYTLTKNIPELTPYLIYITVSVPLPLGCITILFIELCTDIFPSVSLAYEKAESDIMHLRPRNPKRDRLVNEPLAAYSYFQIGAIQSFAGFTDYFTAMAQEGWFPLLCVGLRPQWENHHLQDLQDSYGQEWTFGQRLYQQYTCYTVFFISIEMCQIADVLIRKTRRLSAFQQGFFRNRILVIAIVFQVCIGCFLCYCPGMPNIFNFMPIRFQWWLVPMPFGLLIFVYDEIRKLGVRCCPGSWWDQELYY
T1 sequence (P18434 whole entry partner): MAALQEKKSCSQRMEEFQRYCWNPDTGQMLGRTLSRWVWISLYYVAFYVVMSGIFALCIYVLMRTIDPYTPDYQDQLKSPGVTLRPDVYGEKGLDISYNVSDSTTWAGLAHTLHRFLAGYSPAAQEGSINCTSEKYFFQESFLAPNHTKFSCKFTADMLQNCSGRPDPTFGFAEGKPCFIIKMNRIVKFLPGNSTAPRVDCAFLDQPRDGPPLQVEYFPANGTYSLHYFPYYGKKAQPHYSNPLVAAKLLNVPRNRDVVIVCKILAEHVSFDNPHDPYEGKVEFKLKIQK

For the molecule `CNCc1cn(S(=O)(=O)c2ccc(OC)nc2)c(-c2ccc(F)cc2F)c1OC` [Example 2, 1-(5-(2,4-Difluorophenyl)-4-methoxy-1-((6-methoxypyridin-3-yl)sulfonyl)-1H-pyrrol-3-yl)-N-methylmethanamine], the IC50 (usually the concentration needed to halve the response being measured) in experiment [1] is ≤ 300 nM. Besides, in experiment [2], the “Inhibitory Activity (%) on total gastric acid secretion” value was “+++ (90% or more: +++)” and the “pH of gastric juice” value was 8.04 ± 0.16.

`CNCc1cn(S(=O)(=O)c2ccc(C)nc2)c(-c2ccccc2F)c1OC` [Example 4, 1-(5-(2-Fluorophenyl)-4-methoxy-1-((6-methylpyridin-3-yl)sulfonyl)-1H-pyrrol-3-yl)-N-methylmethanamine]: the 50% inhibitory concentration (IC50) in experiment [1] was ≤ 300 nM.
